Data reported in patent US6602854B1, “Branched multimeric Apo A-I agonist compounds” (priority 1997, dated 2003).
Where a SMILES comes first, the peptide text is derived from it. Where no end group is shown, it is not given here. [ ]: non-standard residue; d: D form. Aib = CC(C)(N)C(=O)O

Tests used:
[1] = target: T1, LCAT (purified from human plasma) (Homo sapiens, UniProt P04180); assay: LCAT activation assay; format: biochemical; design: ACTIVITY (%) LCAT: concentration or dose not given beside the values; conditions: for ACTIVITY (%) LCAT: LCAT activation as compared with native human ApoA-I; for LCAT activation: as compared with native ApoA-I (100%)
T1 construct: from tissue; host or cells: human plasma
T1 sequence (P04180 25-440): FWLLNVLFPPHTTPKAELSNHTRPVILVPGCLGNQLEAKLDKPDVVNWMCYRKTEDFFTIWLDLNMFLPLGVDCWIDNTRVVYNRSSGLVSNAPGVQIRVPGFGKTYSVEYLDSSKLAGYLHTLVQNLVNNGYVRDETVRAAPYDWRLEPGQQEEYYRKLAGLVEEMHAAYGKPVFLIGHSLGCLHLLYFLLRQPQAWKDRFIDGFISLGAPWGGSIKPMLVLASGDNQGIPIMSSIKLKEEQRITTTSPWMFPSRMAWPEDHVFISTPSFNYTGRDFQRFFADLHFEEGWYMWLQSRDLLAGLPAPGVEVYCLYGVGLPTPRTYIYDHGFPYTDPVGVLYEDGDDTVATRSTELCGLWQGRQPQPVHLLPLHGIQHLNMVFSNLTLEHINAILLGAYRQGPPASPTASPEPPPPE
Experimental: The peptides synthesized as described in Section 6, supra, were analyzed in vitro for their ability to activate LCAT. In the LCAT assay, substrate vesicles (small unilamellar vesicles or “SUVs”) composed of egg phophatidylcholine (EPC) or 1-Palmitoyl-2-oleyl-phosphatidyl-choline (POPC) and radiolabelled cholesterol are preincubated with equivalent masses either of peptide or ApoA-I (isolated from human plasma). The reaction is initiated by addition of LCAT (purified from human plasma). Native ApoA-I, which was used as positive control, represents 100% activation activity. “Specific activity” (i.e., units of activity (LCAT activation)/unit of mass) of the peptides can be calculated as the concentration of peptide that achieves maximum LCAT activation. For example, a series of concentrations of the peptide (e.a., a limiting dilution) can be assayed to determine the “specific activity” for the peptide—the concentration which achieves maximal LCAT activation (i.e., percentage conversion of cholesterol to cholesterol ester) at a specific timepoint in the assay (e.g., 1 hr.). When plotting percentage conversion of cholesterol at, e.g., 1 hr., against the concentration of peptide used, the “specific activity” can be identified as the concentration of peptide that achieves a plateau on the plotted curve.
The vesicles used in the LCAT assay are SUVs composed of egg phosphatidylcholine (EPC) or 1-palmitoyl-2-oleyl-phosphatidylcholine (POPC) and cholesterol with a molar ratio of 20:1. To prepare a vesicle stock solution sufficient for 40 assays, 7.7 mg EPC (or 7.6 mg POPC; 10 μmol), 78 μg (0.2 μmol) 4-^14C-cholesterol, 116 μg cholesterol (0.3 μmol) are dissolved in 5 ml xylene and lyophilized. Thereafter 4 ml of assay buffer is added to the dry powder and sonicated under nitrogen atmosphere at 4° C. Sonication conditions: Branson 250 sonicator, 10 mm tip, 6×5 minutes; Assay buffer: 10 mM Tris, 0.14 M NaCl, 1 mM EDTA, pH 7.4). The sonicated mixture is centrifuged 6 times for 5 minutes each time at 14,000 rpm (16,000×g) to remove titanium particles. The resulting clear solution is used for the enzyme assay.
For the LCAT purification, dextran sulfate/Mg^2+ treatment of human plasma is used to obtain lipoprotein deficient serum (LPDS), which is sequentially chromatographed on Phenylsepharose, Affigelblue, ConcanavalinA sepharose and anti-ApoA-I affinity chromatography, as summarized for a representative purification in TABLE IX, below: […]

[2] = Circular dichroism: degree of helicity (free, SUVs, micelles, TFE); conditions: for He (%) free: percent helicity of free, unbound peptide; for He (%) SUVs: percent helicity of peptide-SUV complexes; for He (%) mics: percent helicity of peptide-micelle complexes; for He (%) TFE: percent helicity of peptide-TFE solution
Experimental: Far UV circular dichroism spectra were recorded between 190 and 260 nm (in 0.5 nm or 0.2 nm increments) with a AVIV62DS spectrometer (AVIV Associates, Lakewood, N.J., USA) equipped with a thermoelectric cell holder and sample changer. The instrument was calibrated with (+)-10-camphoric acid. Between one and three scans were collected for each sample, using 10 cm, 5 cm, 1 cm and 0.1 cm path length quartz Suprasil cells, respectively, for peptide concentrations of 10^−7 M to 10^−4 M. The bandwidth was fixed at 1.5 nm and the scan speed to 1 s per wavelength step. The reported data are the mean of at least 2 or 3 independent measurements.
After background substraction, spectra were converted to molar ellipticity (θ) per residue in deg. […] dmol^−1. The peptide concentration was determined by amino acid analysis and also by absorption spectrometry on a Perkin Elmer Lambda 17 UV/Visible spectrophotometer when the peptide contained a chromophore (tryptophane, dansyl, naphtylalanine).
CD spectra were obtained with free, unbound peptide (5 μM in 5 mM phosphate buffer, pH 7.4); with peptide-SUV complexes (20:1 EPC:Chol., Ri=30 and Ri=50); with peptide-micelle complexes (1-myristoyl-2-hydroxy-sn-glycero-3-phosphatidyl choline, Ri=100); and with free, unbound peptide in the presence of 2,2,2-trifluoroethanol (TFE) (5 μM peptide, 90% vol TFE).
The SUVs were obtained by dispersing the lipids (10 mM, 20:1 EPC:Chol., Avanti Polar Lipids, Ala.) in phosphate buffer (5 mM, pH 7.4) with bubbling N2 for 5 min., followed by sonication (1.5 hr.) in a bath sonicator. The homogeneity of the preparation was checked by FPLC.
The micelles were obtained by dispersing the lipid (6 mM 1-myristoyl-2-hydroxy-sn-glycero-3-phosphatidyl choline, Avanti Polar Lipids, AL) in phosphate buffer (5 mM, pH 7.4) with bubbling N2 for 5 min., followed by vortexing.
To obtain the peptide-SUV complexes, SUVs were added to the peptide (5 μM in 5 mM phosphate buffer, pH 7.4) at a phospholipid-peptide molar ratio (Ri) of 30 or 50.
To obtain the peptide-micelle complexes, micelles were added to the peptide (5 μM in 5 mM phosphate buffer, pH 7.4) at a Ri of 100.
All spectra were recorded at 37° C. The stability of peptide 4 (SEQ ID NO:4) as a function of temperature (both free in buffer and in micelles) was determined by recording spectra at a series of different temperatures.
The degree of helicity of peptide 4 (SEQ ID NO:4) as a function of concentration was also determined.
The degree of helicity of the peptides in the various conditions was determined from the mean residue ellipticity at 222 nm (Chen et al., 1974, Biochemistry 13:3350-3359) or by comparing the CD spectra obtained to reference spectra available on databases (16 helical reference spectra from Provencher & Glockner, 1981, Biochemistry 20:33-37; denatured protein reference spectra from Venyaminov et al., 1993, Anal. Biochem. 214:17-24) using the CONTIN curve-fitting algorithm version 2DP, CD-1 pack (Aug. 1982) (Provencher, 1982, Comput. Phys. Commun. 27:213-227, 229-242). Acceptable fit was determined using the statistical analysis methodology provided by the CONTIN algorithm.

[3] = tested on: lipidic vesicles (EPC/Chol 5%); assay: Fluorescence spectroscopy lipid binding; conditions: for I/Io / λmax: peptide 2 μM
Experimental: The lipid binding properties of the peptides synthesized in Section 6, supra, were tested by fluorescence measurements with labeled peptides, in the present case Tryptophane (Trp or W) or Naphtylalanine (Nal). The fluorescence spectra were recorded on a Fluoromax from Spex (Jobin-Yvon) equipped with a Xenon lamp of 150 W, two monochromators (excitation and emission), a photomultiplier R-928 for detection sensitive in the red up to 850 nm and a thermoelectric magnetic stirred cell holder. Quartz Suprasil cuvettes were used for measurements in the micromolar concentration range. A device of variable slits (from 0.4 to 5 nm) allows modulation of the incident and emitted intensities according to the concentration of peptide used. The reported values are in general the average of between 2 to 4 spectra. The peptide concentration is determined by absorption spectrometry on a Philips PU 8800 usng the absorption band of the Trp (ε280 nm=5,550 M^−1cm^−1 in Tris buffer) or the Nal (ε224 nm=92,770 M^−1cm^−1 in methanol).
Fluorescence spectra of the peptides were recorded between 290 nm and 450 nm in Tris-HCl buffer (20 mM, pH=7.5), in the presence and absence of lipidic vesicles. The small unilamellar vesicles were formed after rehydration in buffer of the lyophilized phospholipids, dispersion and tip sonification under a N2 stream. The lipids used were either Egg PC/Chol. (20:1) or POPC/Chol. (20:1). The spectra were recorded at a peptide concentration of 2 μM and at a temperature of 37° C. The fluorescence reference standard in the case of Trp was N-acetyltryptophanylamide (NATA).
Lipid binding studies were done through progressive lipidic vesicle addition to the peptide in solution at 2 μM (slits:5 nm in excitation and 1.5 nm in emission). Dilution effects were taken into account for the fluorescence intensity determination. The lipid concentrations were varied from 10 to 600 μM and the molar ratio of lipid to peptide (Ri) was varied from 5 to 300. The wavelength of excitation was set at 280 nm for both Trp and Nal.
The data were directly recorded and treated by an IBM-PC linked to the spectrofluorimeter through the DM3000F software from Spex. The spectra were corrected by substraction of the solvent contribution and by application of a coefficient given by the constructor taking into account the variation of the photomultiplier response versus the wavelength.
The fluorescence spectra of the peptides were characterized by the wavelength at their maximum of fluorescence emission and by their quantum yield compared to NATA in the case of peptides labeled with a tryptophane. The process of binding to lipids was analyzed by calculating the shift of the wavelength at the maximum of fluorescence emission, (λmax), and the variation of the relative. fluorescence intensity of emission versus the lipid concentration. The relative fluorescence intensity is defined as the following ratio: (I−I0)λmax/I0λmax. I and I0 are both measured at the (λmax) corresponding to the initial free state of the peptide, i.e., without lipids. I is the intensity at a defined lipid to peptide ratio and I0 is the same parameter measured in absence of lipids. The absence of these variations is relevant of the absence of interactions of the peptides with the lipids.

Compound	ACTIVITY (%) LCAT [1] [%]	He (%) free [2] [%]	He (%) SUVs [2] [%]	He (%) mics [2] [%]	He (%) TFE [2] [%]	further results
CC(=O)N1CCC[C@H]1C(=O)N[C@H](C(=O)N[C@@H](CC(C)C)C(=O)N[C@@H](CC(=O)O)C(=O)N[C@@H](CCC(=O)O)C(=O)N[C@@H](Cc1ccccc1)C(=O)N[C@@H](CCCN=C(N)N)C(=O)N[C@@H](CCC(=O)O)C(=O)N[C@@H](CCCCN)C(=O)N[C@@H](CC(C)C)C(=O)N[C@@H](CC(N)=O)C(=O)N[C@@H](CCC(=O)O)C(=O)N[C@@H](CCC(=O)O)C(=O)N[C@@H](CC(C)C)C(=O)N[C@@H](CCC(=O)O)C(=O)N[C@@H](C)C(=O)N[C@@H](CC(C)C)C(=O)N[C@@H](CCCCN)C(=O)N[C@@H](CCC(N)=O)C(=O)N[C@@H](CCCCN)C(=O)N[C@@H](CC(C)C)C(=O)N[C@@H](CCCCN)C(N)=O)C(C)C [Segrest's consensus 22-mer, reference compound] (Ac-PVLDEFREKLNEELEALKQKLK-NH2)	10					LCAT activation [1]: 10%
EWLEAFYKKVLEKLKELF [peptide 18AM4, reference compound]		18	47	44		LCAT activation [1]: less than 4%
PVLDLFRELLNELLEALOQOLO [peptide 14]	61	70	80	96		
PVLDLFRELLNELLEAZKQKLK [peptide 10]	79	60	70	87	71	
PVLDLFRELLNELZEALKQKLK [peptide 27]	44	72	82	92	81	
PVLDLFRELLNLXLEALKEKLK (PVLDLFRELLNL[Aib]LEALKEKLK) [peptide 102, X is Aib; Gln-19 replaced by Glu-19]						LCAT activation (in words) [1]: did not activate LCAT
PVLDLFRELWNELLEALKQKLK [peptide 15]		55	64		68	lipid binding (in words) [3]: very high affinity; lipid to peptide molar ratio at maximum burying of the Tryptophane residue [3]: lower than 5; maximum of the Trp emission wavelength when bound to lipidic vesicles ([3]; EPC/Chol 5% vesicles, shifted from 332 nm): 323 nm; I/Io ([3]; Lipid:Peptide Molar Ratio (Ri) 0): 0; λmax ([3]; Ri 0 (buffer, no lipid)): 332 nm; I/Io ([3]; Ri 5): 10.8; λmax ([3]; Ri 5): 323 nm; I/Io ([3]; Ri 10): 13.2; λmax ([3]; Ri 10): 323.5 nm; I/Io ([3]; Ri 30): 17.5; λmax ([3]; Ri 30): 323 nm; I/Io ([3]; Ri 100): 26.4; λmax ([3]; Ri 100): 323 nm; I/Io ([3]; Ri 200): 43.5; λmax ([3]; Ri 200): 323 nm
pVLDLFRELLNEGLEALKQKLK [peptide 19]	58					
pVLDLFRELLNELLEALKQKLK [peptide 21]	57					
pVLDLFRELLNELLEALKQKLKK [peptide 5]	90					
